Reference: patent US7659078B1, “Method and kit for determination of prostacyclin in plasma” (University of Kentucky Research Foundation, priority 2002, dated 2010)

What was measured:
[1] = system: anti-6-keto-PGF1α antibody; assay: Cross-reactivity of related prostaglandins in the 6-keto-PGF1α aequorin bioluminescent immunoassay; assay type: binding, sheep; settings: calculated at 50% B/B0; cross reactant used in the dose response curve instead of 6-keto-PGF1α; assay buffer
Procedure: Dose-Response Curve: A dose-response curve was generated for 6-keto-PGF1α by simultaneously incubating 100 μL of 6-keto-PGF1α antibody (1:10,000 dilution), 50 μL of different concentrations of the serially diluted analyte, 6-keto-PGF1α, and 50 μL of 1×10^−10 M coelenterazine bound 6-keto-PGF1α-aequorin conjugate (1:500) on microtiter plates coated with the secondary antibody. The plate was incubated in dark at room temperature for two hours with shaking at 300 rpm. The plate was washed three times with the wash buffer to remove any unbound components. The light intensity was measured as described before.
Presence of various prostaglandins other than 6-keto-PGF1α in the blood can cause non-specific binding with the 6-keto-PGF1α antibody and interfere with the detection of 6-keto-PGF1α, giving extremely high values of 6-keto-PGF1α. Therefore, it becomes important to confirm that the amount of 6-keto-PGF1α obtained from our assay is only due to 6-keto-PGF1α and no other prostaglandin. The cross-reactivities of other prostaglandins similar in structure to 6-keto-PGF1α were determined by preparing standard solutions of the compounds in the assay buffer ranging from 100,000 to 100 pg/mL and using them in this assay for 6-keto-PGF1α. The measured 6-keto-PGF1α concentration at 50% B/B0 was then calculated. The percent cross-reactivities were calculated by comparison of measured cross-reactant concentration and the actual concentration (known amount) of the cross-reactant in the sample (Table 1). It must be noted that the prostaglandins occur at different times in the arachidonic acid pathway and in different concentrations. […] The assay can, therefore, be used to measure 6-keto-PGF1α directly from plasma.
Cross-reactivities of related prostaglandins were measured by using varying concentrations of 50 μL of the cross reactant in the dose response curve instead of 6-keto-PGF1α. The percent cross-reactivities were calculated at 50% B/B0.

[2] = 6-keto-PGF1α in plasma of PPH patients on intravenous prostacyclin, measured directly without extraction; assay type: in vivo, human; settings: PPH patient plasma samples
Procedure: The analysis of 6-keto-PGF1α directly in plasma without extraction was performed by diluting the samples 1:200 times and using 50 μL in the dose-response curve along with 100 μL 6-keto-PGF1α of antibody and 50 μL of 6-keto-PGF1α-aequorin conjugate. The analysis was performed in the same manner as the dose-response curve described before. The amount of 6-keto-PGF1α in the samples was calculated from the standard dose response curve generated in plasma. The appropriate dilution factor was taken into consideration when calculating the amount of 6-keto-PGF1α present in each sample.
For in vivo analysis plasma samples were obtained from five patients with severe pulmonary arterial hypertension and 7 normal controls. […] All patient samples were analyzed in the same manner as the dose response curve in plasma. […] The amount of 6-keto-PGF1α in the samples was calculated as described before for sample analysis without extraction. […]
In order to obtain recovery data further analysis of the samples was performed. Two of the normal plasma samples and two patient plasma samples were first analyzed using the assay without extraction. […] The amount of 6-keto-PGF1α in the samples was calculated as described before for sample analysis without extraction. The samples were analyzed in triplicates. […]

[3] = system: anti-6-keto-PGF1α antibody; assay: Binder dilution study of 6-keto-PGF1α-aequorin conjugates; assay type: binding, sheep; settings: 1×10^−10 M conjugate, 2 h room temperature, secondary antibody-coated plate; compared with 1:50 and 1:200 conjugates
Procedure: For the binder dilution studies aliquots of 100 μL of different concentrations of serially diluted anti-6-keto-PGF1α antibody, produced in sheep and 50 μL of 1×10^−10 M 6-keto-PGF1α-aequorin conjugate were placed simultaneously in microtiter plates pre-coated with a secondary antibody, donkey anti-sheep IgG. All dilutions were done in the assay buffer. The plates were incubated in dark at room temperature for 2 h with shaking at 300 rpm. Then the plates were washed with wash buffer (30 mM Tris-HCL buffer, pH 7.0, containing 2 mM EDTA, 0.15 M NaCl, and 0.1% Tween 20) three times to remove any unbound primary antibody or any unbound conjugate. Finally, the light intensity was measured as described earlier for the calibration plot.
The next step was to study the interaction between the anti-6-keto-PGF1α antibody and the conjugates. […] After washing the plate to remove any unbound antibody or conjugate the luminescence was measured. […] The effect of increased or decreased amounts of 6-keto-PGF1α antibody and/or conjugate on the dose-response curve was also evaluated. […] The dose-response curve obtained for 6-keto-PGF1α as depicted in FIG. 3, is sigmoidal in shape, with the luminescence intensity being lower at high concentrations of 6-keto-PGF1α and increasing as the concentration of 6-keto-PGF1α decreases. […]

| Molecule | Percent cross-reactivity [1] [%] | other results |
| --- | --- | --- |
| CCCCC[C@H](O)/C=C/[C@@H]1[C@@H](CC(=O)CCC(=O)O)[C@@H](O)C[C@H]1O [2,3-dinor-6-keto-Prostaglandin F1, 2,3-dinor-6-keto-Prostaglandin F1α] | 10.1 |  |
| CCCCCC(=O)CCC1C(O)CC(O)C1CC(=O)CCCCC(=O)O (stereo not shown) [6,15-diketo-13,14-dihydro-Prostaglandin F1] | 1.83 |  |
| CCCCC[C@H](O)/C=C/[C@@H]1[C@@H](CC(=O)CCCCC(=O)O)[C@@H](O)C[C@H]1O [6-keto-Prostaglandin F1, 6-keto-Prostaglandin F1α] | 100 |  |
| CCCCCC(=O)CCC1C(O)CC(O)C1CCCCCCC(=O)O (stereo not shown) [13,14-dihydroxy-15-keto-Prostaglandin F1] | 0.45 |  |
| CCCCC[C@H](O)/C=C/[C@@H]1[C@H]2C/C(=C/CCCC(=O)O)O[C@H]2C[C@H]1O [Prostacyclin] |  | levels of 6-keto-PGF1α in plasma versus prostacyclin dose [2]: increased with increase in the prostacyclin dose |
| CCCCC[C@H](O)/C=C/[C@H]1C(=O)C[C@H](O)[C@@H]1C/C=C\CCCC(=O)O [Prostaglandin D2] | 7.75 |  |
| CCCCC[C@H](O)/C=C/[C@H]1[C@H](O)CC(=O)[C@@H]1CCCCCCC(=O)O [Prostaglandin E1] | 6.75 |  |
| CCCCC[C@H](O)/C=C/[C@@H]1[C@@H](CCCCCCC(=O)O)[C@@H](O)C[C@H]1O [Prostaglandin F1] | 5.4 |  |
| CCCCC[C@H](O)/C=C/[C@@H]1[C@@H](C/C=C\CCCC(=O)O)[C@@H](O)C[C@H]1O [Prostaglandin F2] | 3.41 |  |
| 1:500 conjugate: NHS ester of 6-keto-PGF1α conjugated to cysteine-free mutant aequorin at 1:500 mole ratio aequorin:6-keto-PGF1α (conjugate) VKLTPDFDNPKWIGRHKHMFNFLDVNHNGRISLDEMVYKASDIVINNLGATPEQAKRHKDAVEAFFGGAGMKYGVETEWPEYIEGWKRLASEELKRYSKNQITLIRLWGDALFDIIDKDQNGAISLDEWKAYTKSDGIIQSSEDSEETFRVSDIDESGQLDVDEMTRQHLGFWYTMDPASEKLYGGAVP |  | binding to 6-keto-PGF1α antibody (binder-dilution curves) [3]: maximum binding |
